According to patent US20240317708A1, “INHIBITORS OF TRANSGLUTAMINASES” (ZEDIRA GMBH, priority 2021, published 2024):

Columns and labels:
[1] = biological target: T1, recombinant human transglutaminase 2 (Homo sapiens, UniProt P21980); test: Transglutaminase assay (dansylcadaverine incorporation into dimethylcasein, DCC-assay); format: biochemical; details: recombinant human TG2 10 nM, dansylcadaverine/dimethylcasein, 37° C.
T1 construct: purchased Zedira T022
T1 sequence (P21980 1-687): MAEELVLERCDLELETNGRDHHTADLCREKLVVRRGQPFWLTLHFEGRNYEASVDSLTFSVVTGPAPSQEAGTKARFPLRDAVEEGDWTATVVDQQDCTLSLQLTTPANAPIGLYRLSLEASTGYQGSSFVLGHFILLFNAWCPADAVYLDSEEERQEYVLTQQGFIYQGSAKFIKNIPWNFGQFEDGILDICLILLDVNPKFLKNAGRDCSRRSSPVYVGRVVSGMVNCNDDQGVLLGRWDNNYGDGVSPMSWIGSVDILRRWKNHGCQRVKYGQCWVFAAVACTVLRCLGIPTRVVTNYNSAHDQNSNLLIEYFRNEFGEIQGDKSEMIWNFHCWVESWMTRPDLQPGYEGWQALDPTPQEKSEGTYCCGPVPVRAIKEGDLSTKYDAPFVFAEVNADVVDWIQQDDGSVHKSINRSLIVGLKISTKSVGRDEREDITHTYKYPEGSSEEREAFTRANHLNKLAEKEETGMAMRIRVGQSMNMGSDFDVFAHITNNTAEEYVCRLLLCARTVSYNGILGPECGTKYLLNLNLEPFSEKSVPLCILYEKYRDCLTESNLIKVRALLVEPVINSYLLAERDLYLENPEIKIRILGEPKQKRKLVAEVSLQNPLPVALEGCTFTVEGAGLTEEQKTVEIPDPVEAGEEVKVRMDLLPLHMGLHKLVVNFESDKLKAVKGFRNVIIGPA
Procedure, shortened: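 IC50 derived from fluorescence slope between 20 and 30 min (λex 330 nm, λem 500 nm, 37 °C), expressed relative to a 2% DMSO control. Reaction: 10 nM recombinant human TG2, 4 μM dimethylcasein, 16.7 μM dansylcadaverine, 10 mM CaCl2 and glutathione, pH 8.0.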

[2] = Log D shake flask method (octanol / PBS pH 7.4, HPLC); format: physicochemical; details: octanol/phosphate-buffered saline (PBS); octanol / PBS pH 7.4, shake flask
Protocol: In order to classify the inventive compounds according to their lipophilicity, Log D values (distribution coefficient) were determined by means of the well-established shake flask method, measuring the partition of a compound between an octanol and phosphate-buffered saline (PBS, pH 7.4) by HPLC.

[3] = Caco-2 permeability assay (CacoReady kit); format: in vitro ADME; details: human
Procedure, shortened: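 Apparent permeability coefficients (Papp) were measured across Caco-2 cell barriers using a ready-to-use kit run per the supplier's protocol. Values serve as a predictor of oral/intestinal bioavailability.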

Structure (SMILES) | IC50 [1] [µM] | logD [2] | Papp [3] [nm/s]
COC(=O)/C=C/CC[C@H](NC(=O)c1cnnn1C)C(=O)Nc1cccn(CC(=O)NC2C3CC4CC(C3)CC2C4)c1=O (stereo partly drawn) [III-22, (S,E)-methyl 7-(1-(2-(2-adamantylamino)-2-oxoethyl)-2-oxo-1,2-dihydropyridin-3-ylamino)-6-(1-methyl-1H-1,2,3-triazole-5-carboxamido)-7-oxohept-2-enoate] | < 0.025 | 1 to 3 | 10 to 100
COC(=O)/C=C/CC[C@H](NC(=O)c1cnsn1)C(=O)Nc1cccn(CC(=O)NC23CC(C2)C3)c1=O [III-173, (S,E)-methyl 7-(1-(2-(bicyclo[1.1.1]pentan-1-ylamino)-2-oxoethyl)-2-oxo-1,2-dihydropyridin-3-ylamino)-7-oxo-6-(1,2,5-thiadiazole-3-carboxamido)hept-2-enoate] | 0.025 to 0.25 | < 1 | < 10
COC(=O)/C=C/CC[C@H](NC(=O)c1ncc(OC)o1)C(=O)Nc1cccn(CCC(=O)NC2C3CC4CC(C3)CC2C4)c1=O (stereo partly drawn) [III-133, (S,E)-methyl 7-(1-(3-(2-adamantylamino)-3-oxopropyl)-2-oxo-1,2-dihydropyridin-3-ylamino)-6-(5-methoxyoxazole-2-carboxamido)-7-oxohept-2-enoate] | 0.25 to 1.5 | 3 to 5 | < 10
COC(=O)/C=C/CC[C@H](NC(=O)[C@H]1CCNC1)C(=O)Nc1cccn(CC(=O)NC2C3CC4CC(C3)CC2C4)c1=O (stereo partly drawn) [III-26, (S,E)-methyl 7-(1-(2-(2-adamantylamino)-2-oxoethyl)-2-oxo-1,2-dihydropyridin-3-ylamino)-7-oxo-6-((S)-pyrrolidine-3-carboxamido)hept-2-enoate] | 0.025 to 0.25 | 1 to 3 | 10 to 100
COC(=O)/C=C/CC[C@H](NC(=O)c1sc(C(F)(F)F)nc1C)C(=O)Nc1cccn(CC(=O)NC23CC4CC(C)(CC(C)(C4)C2)C3)c1=O [III-123, (S,E)-methyl 7-(1-(2-(3,5-dimethyladamantane-1-amino)-2-oxoethyl)-2-oxo-1,2-dihydropyridin-3-ylamino)-6-(4-methyl-2-(trifluoromethyl)thiazole-5-carboxamido)-7-oxohept-2-enoate] | < 0.025 | 3 to 5 | 10 to 100
CCC12CC3CC(C1)CC(NC(=O)Cn1cccc(NC(=O)[C@H](CC/C=C/C(=O)OC)NC(=O)c4oc5ccccc5c4C)c1=O)(C3)C2 [III-48, (S,E)-methyl 7-(1-(2-(3-ethyladamantan-1-amino)-2-oxoethyl)-2-oxo-1,2-dihydropyridin-3-ylamino)-6-(3-methylbenzofuran-2-carboxamido)-7-oxohept-2-enoate] | 0.025 to 0.25 | 3 to 5 | 10 to 100
COC(=O)/C=C/CC[C@H](NC(=O)c1cncn1C)C(=O)Nc1cccn(CC(=O)NC2C3CC4CC(C3)CC2C4)c1=O (stereo partly drawn) [III-1, (S,E)-methyl 7-(1-(2-(2-adamantylamino)-2-oxoethyl)-2-oxo-1,2-dihydropyridin-3-ylamino)-6-(1-methyl-1H-imidazole-5-carboxamido)-7-oxohept-2-enoate] | < 0.025 | 1 to 3 | < 10
CC(=O)/C=C/CC[C@H](NC(=O)c1ncn(C)n1)C(=O)Nc1cccn(CC(=O)NC2C3CCCC2CC3)c1=O (stereo partly drawn) [III-159, N-((2S,E)-1-(1-(2-(bicyclo[3.2.1]octan-8-ylamino)-2-oxoethyl)-2-oxo-1,2-dihydropyridin-3-ylamino)-1,7-dioxooct-5-en-2-yl)-1-methyl-1H-1,2,4-triazole-3-carboxamide] | 0.25 to 1.5 | < 1 | < 10
COC(=O)/C=C/CC[C@H](NC(=O)c1cc(Cl)sc1Cl)C(=O)Nc1cccn(CC(=O)N[C@@H]2C[C@@H]3CC[C@H]2C3)c1=O [III-126, (S,E)-methyl 7-(1-(2-((1S,2R,4R)-bicyclo[2.2.1]heptan-2-ylamino)-2-oxoethyl)-2-oxo-1,2-dihydropyridin-3-ylamino)-6-(2,5-dichlorothiophene-3-carboxamido)-7-oxohept-2-enoate] | < 0.025 | 3 to 5 | 10 to 100
COC(=O)/C=C/CC[C@H](NC(=O)c1[nH]c2ccccc2c1C)C(=O)Nc1cccn(CC(=O)NC2C3CC4CC(C3)CC2C4)c1=O (stereo partly drawn) [III-10, (S,E)-methyl 7-(1-(2-(2-adamantylamino)-2-oxoethyl)-2-oxo-1,2-dihydropyridin-3-ylamino)-6-(3-methyl-1H-indole-2-carboxamido)-7-oxohept-2-enoate] | < 0.025 | 3 to 5 | 10 to 100
COC(=O)/C=C/CC[C@H](NC(=O)c1cc2ccccc2[nH]1)C(=O)Nc1cccn(CC(=O)NC2C3CC4CC(C3)CC2C4)c1=O (stereo partly drawn) [III-8, (S,E)-methyl 6-(1H-indole-2-carboxamido)-7-(1-(2-(2-adamantylamino)-2-oxoethyl)-2-oxo-1,2-dihydropyridin-3-ylamino)-7-oxohept-2-enoate] | < 0.025 | 3 to 5 | < 10
COC(=O)/C=C/CC[C@H](NC(=O)c1oc2ccccc2c1C)C(=O)Nc1cccn(CC23CC4CC(CC(O)(C4)C2)C3)c1=O [III-80, (6S,E)-methyl 7-(1-((3-hydroxy-1-adamantyl)methyl)-2-oxo-1,2-dihydropyridin-3-ylamino)-6-(3-methylbenzofuran-2-carboxamido)-7-oxohept-2-enoate] | 0.25 to 1.5 | 1 to 3 | < 10
Cc1oc(Br)cc1C(=O)N[C@@H](CC/C=C/C(=O)Nc1ccccc1)C(=O)Nc1cccn(CC(=O)NC23CC(C2)C3)c1=O [III-152, (S,E)-N7-(1-(2-(bicyclo[1.1.1]pentan-1-ylamino)-2-oxoethyl)-2-oxo-1,2-dihydropyridin-3-yl)-6-(5-bromo-2-methylfuran-3-carboxamido)-N1-phenylhept-2-enediamide] | 0.025 to 0.25 | 1 to 3 | 10 to 100
COC(=O)/C=C/CC[C@H](NC(=O)c1oc2ccccc2c1C)C(=O)Nc1cccn(CC(=O)NC23CC4CC(CC(Cl)(C4)C2)C3)c1=O [III-52, (S,E)-methyl 7-(1-(2-(3-chloroadamantan-1-amino)-2-oxoethyl)-2-oxo-1,2-dihydropyridin-3-ylamino)-6-(3-methylbenzofuran-2-carboxamido)-7-oxohept-2-enoate] | < 0.025 | 3 to 5 | 10 to 100
COC(=O)/C=C/CC[C@H](NC(=O)c1ccnn1C)C(=O)Nc1cccn(CC(=O)N[C@@H]2C[C@@H]3CC[C@H]2C3)c1=O [III-117, (S,E)-methyl 7-(1-(2-((1S,2R,4R)-bicyclo[2.2.1]heptan-2-ylamino)-2-oxoethyl)-2-oxo-1,2-dihydropyridin-3-ylamino)-6-(1-methyl-1H-pyrazole-5-carboxamido)-7-oxohept-2-enoate] | < 0.025 | 1 to 3 | < 10
COC(=O)/C=C/CC[C@H](NC(=O)[C@@H]1CCCNC1)C(=O)Nc1cccn(CC(=O)NC2C3CC4CC(C3)CC2C4)c1=O (stereo partly drawn) [III-30, (S,E)-methyl 7-(1-(2-(2-adamantylamino)-2-oxoethyl)-2-oxo-1,2-dihydropyridin-3-ylamino)-7-oxo-6-((R)-piperidine-3-carboxamido)hept-2-enoate] | 0.025 to 0.25 | 3 to 5 | < 10
